The test system of series [1] is Kanzawa spider mite (Tetranychus kanzawai kishida) which had acquired a strong resistance to chlorfenapyr. The series is described as follows: Miticidal effect against female imagines of chlorfenapyr-resistant Kanzawa spider mite, leaf disk spray test. The series is classed as in vivo. The text has this:
For a T value equal to 100, an additive action is indicated.

In series [2] the test system is susceptible strain of spider mite. Kind of series: LC50 against a susceptible strain of spider mite. The series is classed as in vivo.
The mark [3] stands for this setting: single test compound, female imago, chlorfenapyr-resistant strain, mortality two days after spray treatment, 25±1° C., probit analysis.

SMILES strings stand for the structures.

One may read the LC50 as the concentration that kills 50% of the test population. Lower therefore signals a more lethal substance.

Take `COP(=S)(OC)Oc1ccc(C#N)cc1` [CYAP, O,O-Dimethyl-O-p-cyanophenylthiophosphate]: in series [1] (setting [3]), the 50% lethal concentration (LC50) is reported as 3200 ppm. The same measure, in the same setting: for `COP(=S)(OC)Oc1ccc(SC)c(C)c1` [MPP, O,O-Dimethyl-O-[3-methyl-4-(methylthio)phenyl]-thiophosphate] the value was 1100 ppm. Compound `CCCSP(=S)(OCC)Oc1ccc(Cl)cc1Cl` (stereo not drawn) [Prothiophos, O-2,4-Dichlorophenyl-O-ethyl-S-propylphosphorodithioate] had an LC50 in series [1] (in vivo) of 260 ppm. As to `CCOP(=S)(Oc1ccc([N+](=O)[O-])cc1)c1ccccc1` (stereo not drawn) [EPN, Ethyl p-nitrophenylthionobenzenephosphonate], in series [1] (setting [3]), the LC50 is recorded as 3100 ppm. Consider `CCOCn1c(-c2ccc(Cl)cc2)c(C#N)c(Br)c1C(F)(F)F` [Chlorfenapyr, 4-Bromo-2-(4-chlorophenyl)-1-(ethoxymethyl)-5-(trifluoromethyl)pyrrole-3-carbonitrile], for which the LC50 entry in series [2] is on record as “about 5 ppm”; in series [1] (setting [3]) it was 1500 ppm. Moreover, the “resistance to chlorfenapyr of the resistant strain versus susceptible strain” value in series [1] (LC50 resistant strain relative to susceptible strain) was roughly 300 fold.

`CCOP(=S)(OCC)SCSP(=S)(OCC)OCC` [Ethion, O,O,O′,O′-Tetraethyl-S,S′-methylenebisphosphorodithioate] returned a 50% lethal concentration (LC50) in series [1] (setting [3]) of 3100 ppm. Regarding `CCCSP(=S)(OCC)Oc1ccc(SC)cc1` (stereo not drawn) [Sulprofos, O-Ethyl-O-4-methylthiophenyl-S-propyl-phosphorodithioate], in series [1] (setting [3]), the LC50 is 320 ppm. Same read-out and setting: for `CCOP(=S)(OCC)Oc1nc(Cl)c(Cl)cc1Cl` [Chlorpyrifos, O,O-Diethyl-O-3,5,6-trichloro-2-pyridylphosphorothioate] the value was 3200 ppm; for `CC(C)OP(=O)(OC(C)C)SCc1ccccc1` [IBP, O,O-Diisopropyl-S-benzylthiophosphate], 1300 ppm; for `CCOP(=S)(OCC)SCn1c(=O)oc2cc(Cl)ccc21` [Phosalone, 3-Diethoxyphosphorylthiomethyl-6-chlorobenzoxazolone], 350 ppm.

In series [1] (setting [3]), `COP(=S)(OC)Oc1nc(Cl)c(Cl)cc1Cl` [Chlorpyrifosmethyl, O,O-Dimethyl-O-3,5,6-trichloro-2-pyridylphosphorothioate] had an LC50 of 790 ppm.

Compound `CCOP(=S)(OCC)Oc1cc(C)nc(C(C)C)n1` [Diazinon, (2-isopropyl-4-methylpyrimidyl-6)-diethylthiophosphate] returned an LC50 in series [1] (setting [3]) of 3200 ppm.

As to `COP(=S)(OC)Oc1ccc([N+](=O)[O-])c(C)c1` [MEP, O,O-Dimethyl-O-(3-methyl-4-nitrophenyl)thiophosphate], in series [1] (setting [3]), the median lethal concentration (LC50) came out at 3200 ppm. As for `CCOP(=S)(OCC)Oc1ccc(=O)n(-c2ccccc2)n1` [Pyridaphenthion, O,O-Diethyl-O-(3-oxo-2-phenyl-2H-pyridazin-6-yl) phosphorothioate], in series [1] (setting [3]), the LC50 was found to be 1900 ppm. Same read-out and setting: for `CCOC(=O)CC(SP(=S)(OC)OC)C(=O)OCC` (stereo not drawn) [Malathon, Dimethyldicarbethoxyethyldithiophosphate] the value was 3400 ppm. On the same count and under the same terms, for `CCOC(=O)C(SP(=S)(OC)OC)c1ccccc1` (stereo not drawn) [PAP, Ethyl dimethyldithiophosphorylphenylacetate] the value was 2000 ppm.

These data come from patent US6649646B2, “Insecticidal and miticidal compositions” (priority 1996, dated 2003).
